Reference: patent US9061003B2, “Therapeutic or preventive agent for diabetes” (NITTA GELATIN INC., priority 2011, dated 2015)
Read-outs that look alike come from different tables or passages of the source. Square brackets hold non-standard residues; d marks the D form. Peptide text beside a SMILES is read from it. Hyp = O=C(O)[C@@H]1C[C@@H](O)CN1

Key:
[1] = tested on: Human-derived intestinal tract L cells (NCI-H716 cell); assay type: cell-based; conditions: for GLP-1 secretion accelerating activity (in words): discussion of results; for GLP-1 secretion accelerating percentage: peptides, 5 mM sample, 1 hour, NCI-H716 cells, Blank = 100%, n = 4
Protocol: Human-derived intestinal tract L cells (NCI-H716 cell: manufactured by ATCC) were inoculated at 5×10^5 cells/mL×200 μL (1×10^5 cells/well) in a RPIM medium containing 10% FBS (manufactured by ATCC) on a Pre-coated poly-L-lysin plate (96 wells plate) and cultured for 2 days. After confirming that the cells were adhered to the plate, the medium was replaced by a test medium (146 mM NaCl, 5 mM KCl, 1.5 mM CaCl2, 1 mM MgSO4, 20 mM HEPES, 5.6 mM glucose, 2 mg/mL BSA) and a sample was added at a final concentration of 5 mM. A culture supernatant after 1 hour was 30-fold diluted with PBS, and tested with GLP-1 ELISA kit (manufactured by Levis) according to the protocol.
Based on GLP-1 secretion in the case not added with the sample (Blank) as 100%, a GLP-1 secretion accelerating percentage in the fraction added with 5 mM sample was calculated.

[2] = target: T1, DPPIV enzyme; human recombinant (Homo sapiens, UniProt P27487); test: DPPIV inhibitory activity (DPPIV Drug Discovery Kit-AK-499, H-Gly-Pro-AMC substrate); assay type: biochemical; conditions: for DPPIV inhibitory activity (in words): discussion of results; for IC50 (concentration at which 50% of DPPIV activity was inhibited): peptides, human recombinant DPPIV
T1 construct: purchased BIOMOL E434-9090 (kit AK-499)
Protocol: DPPIV inhibitory activity was determined by using a DPPIV inhibitory activity measuring kit “DPPIV Drug Discovery Kit-AK-499” (manufactured by BIOMOL). […] Inhibitory activity was evaluated by the concentration at which 50% of DPPIV activity was inhibited.

[3] = Intestinal tract absorptivity (intragastric administration, portal vein perfusate, LC/MS/MS); assay type: in vivo, Wistar rats; conditions: rat, po
Protocol: Male Wistar rats (170 g) were fasted overnight before subjected to the experiment. As a test sample, 215 nmol/10 mL of each of the peptides was used, and intragastrically administered. As a test method, heart and portal vein of each rat were attached with a cannula to make one-directional perfusion. […] To a perfusion sample solution (5.0 mL) collected from the portal vein was added 0.5 mL of 30% sulfosalicylic acid and stirred vigorously, and left overnight in a refrigerator. This sample was centrifuged at 3000 rpm for 10 minutes, to remove protein. For the supernatant of centrifugation, an amount of hydroxyproline in 0.5 mL was colorimetrically quantified, and an amount of free-type Hyp was obtained. […] After concentrating and drying the resultant in an evaporator, and removing the hydrochloric acid, the solid was dissolved in 5 mL of distilled water, and several drops of a saturated lithium hydroxide solution was added thereto to adjust pH at 5 to 7, and the volume was fixed at 10 mL. […] The value obtained by subtracting the amount of free-type Hyp before hydrolysis from the total Hyp amount after hydrolysis is an amount of peptide-form Hyp. From this amount of peptide-form Hyp, a quantitative value of absorption of each peptide into rat portal vein perfusate in the test sample was first determined. The colorimetric quantification of the amount of hydroxyproline was conducted by a […] and Shill method, and was concretely conducted in the following manner. That is, 2 mL of 2-propanol was added to 2 mL of a sample solution and stirred thoroughly. Then, 0.5 mL of a chloramine T liquid being an oxidizing agent was added to the mixture, and left still for accurately 4 minutes, and then cooled on ice. Then, 5 mL of a p-dimethylaminobenzaldehyde solution was added to the mixture and stirred thoroughly, and then heated in a boiling water bath for accurately 2 minutes. Then, the reaction was immediately cooled on ice, and left still for 1 hour, and then colorimetrically quantified at a wavelength of 575 nm. […] Further, the p-dimethylaminobenzaldehyde solution (Erich solution) was prepared by dissolving 20 g of p-dimethylaminobenzaldehyde powder in 22 mL of concentrated hydrochloric acid under heating in boiling water, and immediately cooling the same in ice water, and adding 122 mL of 2-propanol and dissolving it under stirring. Next, peptides collected in the rat portal vein perfusate, namely the aforementioned intestinally absorbed peptides were identified and quantified by the following HPLC analysis and mass spectrometry (LC/MS/MS). Analysis of the peptide in the perfusate was conducted by reverse-phase HPLC analysis. As a HPLC device, an LCSS-905 system manufactured by JASCO Corporation, consisting of a liquid feeding pump, a degasser, an automatic sampler, a column open, a UV spectrophotometer, a printer, and a system controller was used. As a reverse-phase column, Nova Pak C18 (3.9×150 mm) was used. […] As a HPLC device, U980HPLC (manufactured by JASCO Corporation) attached with an ODS(C18) column (Mightysil RP-18, 2×250 mm, manufactured by Kanto Chemical Co., Ltd.) was used. As a mobile phase solvent, a 0.2% formic acid-containing acetonitrile-water system was used, and the concentration of acetonitrile was increased from 0% to 40% over 40 minutes by a linear gradient, and it was washed with 100% acetonitrile for 10 minutes. […] MS analysis was conducted by a MS/MS system using a Quattro LC mass spectrophotometer (Micromass, Manchester, UK) according to a four-channel Multiple Reaction Monitoring method. To be more specific, the elute from HPLC was monitored by m/z being [M+H]^+ and by m/z of its fragment ion species. At this time, [M+H]^+ m/z was monitored using 302.2>189.4 for LOG; 286.1>189.3 for POG; 187.1>70.3 for PA; 261.1>243.4 for EO, 245.1>132.3 for LO; 245.2>132.1 for IO; 318.1>225.4 for EOG; 276.1>189.4 for SOG; 219.1>132.2 for SO; and 260.1>189.4 for AOG.

[4] = tested on: ob/ob mice; test: Evaluation of sugar tolerance by glucose loading test; assay type: in vivo; conditions: 0.85 g/kg orally 30 minutes before oral glucose 2 g/kg
Protocol: Six-weeks old male ob/ob mice (Japan SLC) were allowed to acclimate by feeding with normal diet (MF, Oriental Yeast) for 7 days, and subjected to the experiment. After fasting the same mice overnight (16 hours), each collagen peptide (0.85 g/kg) or casein (0.85 g/kg, manufactured by DMV, Netherlands) was orally administered, and glucose (2 g/kg) was orally administered after 30 minutes, and the effect on the sugar tolerance was examined by a glucose loading test (2 g/kg). After 0, 15, 30, 60 and 120 minutes, the blood sugar level was measured by using a blood glucose measuring apparatus (Glutest ace R, SANWA KAGAKU KENKYUSHO CO., LTD.), and AUC0-120 min was calculated, and evaluated.

[5] = male Wistar rats, 215 nmol/10 mL intragastrically, portal vein perfusate, read-out: Amount of peptide identified after absorption
[6] = male, Wistar, in vivo, 215 nmol/10 mL

T1 sequence (P27487 whole entry): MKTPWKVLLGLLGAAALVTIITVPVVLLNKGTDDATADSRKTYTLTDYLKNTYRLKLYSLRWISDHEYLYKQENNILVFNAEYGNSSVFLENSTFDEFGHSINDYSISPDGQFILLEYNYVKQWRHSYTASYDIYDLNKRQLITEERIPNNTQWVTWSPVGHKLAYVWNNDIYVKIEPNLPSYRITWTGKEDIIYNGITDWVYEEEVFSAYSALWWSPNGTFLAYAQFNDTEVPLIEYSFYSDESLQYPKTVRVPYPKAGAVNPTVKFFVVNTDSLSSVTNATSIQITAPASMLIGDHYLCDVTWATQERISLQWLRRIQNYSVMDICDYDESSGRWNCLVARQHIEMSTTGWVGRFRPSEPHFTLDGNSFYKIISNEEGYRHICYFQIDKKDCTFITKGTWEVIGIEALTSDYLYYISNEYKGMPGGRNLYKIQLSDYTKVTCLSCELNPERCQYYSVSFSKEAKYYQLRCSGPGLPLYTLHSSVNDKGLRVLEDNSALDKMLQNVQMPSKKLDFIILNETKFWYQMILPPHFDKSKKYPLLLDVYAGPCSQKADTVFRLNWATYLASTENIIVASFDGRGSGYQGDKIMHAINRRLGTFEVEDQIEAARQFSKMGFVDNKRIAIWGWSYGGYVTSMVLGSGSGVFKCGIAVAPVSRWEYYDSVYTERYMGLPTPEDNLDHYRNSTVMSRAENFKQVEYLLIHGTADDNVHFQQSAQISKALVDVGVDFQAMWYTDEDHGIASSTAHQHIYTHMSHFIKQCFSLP

Compound	GLP-1 secretion accelerating activity (in words) [1]	GLP-1 secretion accelerating percentage [1] [%]	DPPIV inhibitory activity (in words) [2]	IC50 (concentration at which 50% of DPPIV activity was inhibited) [2] [µM]	level at time molar [3, 5] [µM]	level at time molar [3, 6] [µM]	AUC0-120 min × 1000 (blood sugar level) [4] [min mg/dL]
CC(C)C[C@H](N)C(=O)N1C[C@H](O)C[C@H]1C(=O)NCC(=O)O [LOG, Leu-Hyp-Gly] (H-Leu-[Hyp]-Gly-OH; N-terminus and C-terminus assumed)	have GLP-1 secretion accelerating activity	326 ± 17	high DPPIV inhibitory activity	280	116.1 ± 1	–	–
N[C@@H](CO)C(=O)N1C[C@H](O)C[C@H]1C(=O)NCC(=O)O [SOG, Ser-Hyp-Gly] (H-Ser-[Hyp]-Gly-OH; N-terminus and C-terminus assumed)	–	–	high DPPIV inhibitory activity	3000	–	103.2 ± 1	–
Pro-Gly [PG]	have GLP-1 secretion accelerating activity	168 ± 15	have DPPIV inhibitory activity	–	–	–	–
Hyp-Gly [OG]	have GLP-1 secretion accelerating activity	152 ± 22	have DPPIV inhibitory activity	–	–	–	–
N[C@@H](CCC(=O)O)C(=O)N1C[C@H](O)C[C@H]1C(=O)NCC(=O)O [EOG, Glu-Hyp-Gly] (H-Glu-[Hyp]-Gly-OH; N-terminus and C-terminus assumed)	have GLP-1 secretion accelerating activity	307 ± 84	high DPPIV inhibitory activity	2900	–	110 ± 0.9	–
C[C@H](N)C(=O)N1C[C@H](O)C[C@H]1C(=O)O [AO, Ala-Hyp] (H-Ala-[Hyp]-OH; N-terminus and C-terminus assumed)	–	262 ± 71	–	>10000	–	71 ± 0.9	–
NCC(=O)N1CCC[C@H]1C(=O)N1C[C@H](O)C[C@H]1C(=O)O [GPO, Gly-Pro-Hyp] (H-Gly-Pro-[Hyp]-OH)	–	278 ± 60	–	>10000	2.2	–	–
C[C@H](NC(=O)[C@@H]1CCCN1)C(=O)NCC(=O)O [PAG, reference compound] (H-Pro-Ala-Gly-OH; N-terminus and C-terminus assumed)	–	–	–	>10000	–	105 ± 1.3	–
CC(C)C[C@H](N)C(=O)N1C[C@H](O)C[C@H]1C(=O)O [LO, Leu-Hyp] (H-Leu-[Hyp]-OH; N-terminus and C-terminus assumed)	–	–	high DPPIV inhibitory activity	1700	–	167.7 ± 0.9	–
C[C@H](NC(=O)[C@@H]1CCCN1)C(=O)O [PA, Pro-Ala] (H-Pro-Ala-OH; N-terminus and C-terminus assumed)	have GLP-1 secretion accelerating activity	133 ± 85	high DPPIV inhibitory activity	1000	–	152.6 ± 1.1	–
Casein	–	–	–	–	–	–	40.0 ± 2.0
C[C@H](N)C(=O)N1C[C@H](O)C[C@H]1C(=O)NCC(=O)O [AOG, Ala-Hyp-Gly] (H-Ala-[Hyp]-Gly-OH; N-terminus and C-terminus assumed)	have GLP-1 secretion accelerating activity	120 ± 5	high DPPIV inhibitory activity	6000	66.7 ± 1.3	–	–
Pro-Pro [PP]	have GLP-1 secretion accelerating activity	167 ± 53	have DPPIV inhibitory activity	–	–	–	–
Pro-Hyp [PO]	have GLP-1 secretion accelerating activity	154 ± 44	have DPPIV inhibitory activity	–	–	–	–
N[C@@H](CO)C(=O)N1C[C@H](O)C[C@H]1C(=O)O [SO, Ser-Hyp] (H-Ser-[Hyp]-OH; N-terminus and C-terminus assumed)	have GLP-1 secretion accelerating activity	161 ± 37	high DPPIV inhibitory activity	3600	–	116.1 ± 0.9	–
N[C@@H](CCC(=O)O)C(=O)N1C[C@H](O)C[C@H]1C(=O)O [EO, Glu-Hyp] (H-Glu-[Hyp]-OH; N-terminus and C-terminus assumed)	have GLP-1 secretion accelerating activity	148 ± 66	high DPPIV inhibitory activity	1500	–	156 ± 1.3	–
CC[C@H](C)[C@H](N)C(=O)N1C[C@H](O)C[C@H]1C(=O)O [IO, Ile-Hyp] (H-Ile-[Hyp]-OH; N-terminus and C-terminus assumed)	–	–	high DPPIV inhibitory activity	2900	–	163 ± 1.9	–
O=C(O)CNC(=O)[C@@H]1C[C@@H](O)CN1C(=O)[C@@H]1CCCN1 [POG, Pro-Hyp-Gly] (H-Pro-[Hyp]-Gly-OH; N-terminus and C-terminus assumed)	–	–	high DPPIV inhibitory activity	600	129 ± 1	–	–
